In patent US20080058293A1, “Quinoline Derivates and Their Use in Therapy” (priority 2003, published 2008):
Counter-ions that a name gives are not always drawn.

Target: T1, P2X7 receptor (Homo sapiens, UniProt Q99572)
T1 construct: 200 μl of a suspension of THP-1 cells; endogenous in cells; host or cells: THP-1 cells
T1 sequence (Q99572 1-595): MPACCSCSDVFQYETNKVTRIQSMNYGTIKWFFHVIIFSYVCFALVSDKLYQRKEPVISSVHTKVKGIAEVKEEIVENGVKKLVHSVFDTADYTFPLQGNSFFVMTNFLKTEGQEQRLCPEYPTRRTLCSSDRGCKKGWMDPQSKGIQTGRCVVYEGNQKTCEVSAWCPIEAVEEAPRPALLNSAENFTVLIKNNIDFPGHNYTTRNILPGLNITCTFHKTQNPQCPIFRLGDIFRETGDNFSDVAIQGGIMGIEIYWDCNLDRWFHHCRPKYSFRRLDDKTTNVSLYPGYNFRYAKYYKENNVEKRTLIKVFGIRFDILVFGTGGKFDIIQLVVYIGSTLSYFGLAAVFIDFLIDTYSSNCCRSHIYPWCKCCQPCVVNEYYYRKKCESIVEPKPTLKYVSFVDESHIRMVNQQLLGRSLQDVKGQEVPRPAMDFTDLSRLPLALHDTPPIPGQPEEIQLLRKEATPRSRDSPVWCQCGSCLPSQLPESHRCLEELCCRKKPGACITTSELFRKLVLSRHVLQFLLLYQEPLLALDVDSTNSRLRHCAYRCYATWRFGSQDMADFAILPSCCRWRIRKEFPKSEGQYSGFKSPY
Test: bbATP-induced ethidium bromide fluorescence in THP-1 cells, P2X7 receptor antagonist activity
Format: cell-based
Details: negative logarithm of concentration reducing bbATP agonist activity by 50%, 10^-5M bbATP, 37° C. one hour
Source text: Certain compounds such as benzoylbenzoyl adenosine triphosphate (bbATP) are known to be agonists of the P2X7 receptor, effecting the formation of pores in the plasma membrane (Drug Development Research (1996), 37(3), p. 126). Consequently, when the receptor is activated using bbATP in the presence of ethidium bromide (a fluorescent DNA probe), an increase in the fluorescence of intracellular DNA-bound ethidium bromide is observed. The increase in fluorescence can be used as a measure of P2X7 receptor activation and therefore to quantify the effect of a compound on the P2X7 receptor.
In this manner, each of the title compounds of the Examples was tested for antagonist activity at the P2X7 receptor. Thus, the test was performed in 96-well flat bottomed microtitre plates, the wells being filled with 250 μl of test solution comprising 200 μl of a suspension of THP-1 cells (2.5×10^6 cells/ml) containing 10^−4M ethidium bromide, 25 μl of a high potassium buffer solution containing 10^−5M bbATP, and 25 μl of the high potassium buffer solution containing 3×10^−5M test compound. The plate was covered with a plastics sheet and incubated at 37° C. for one hour. The plate was then read in a Perkin-Elmer fluorescent plate reader, excitation 520 nm, emission 595 nm, slit widths: Ex 15 nm, Em 20 nm. For the purposes of comparison, bbATP (a P2X7 receptor agonist) and pyridoxal 5-phosphate (a P2X7 receptor antagonist) were used separately in the test as controls.

| IC50 | SMILES |
| --- | --- |
| 316 nM | Cc1ccc2c(C(=O)NC[C@H](C)c3ccccc3)c(Cl)ccc2n1 [Example 1, 6-Chloro-2-methyl-N-[(2R)-2-phenylpropyl]-5-quinolinecarboxamide, hydrochloride] |
| 31.6 nM | CNCCCN(C)c1ccc2c(NC(=O)C[C@@H](C)c3ccccc3)c(Cl)ccc2n1 [Example 3, (βR)-N-[6-Chloro-2-[methyl[3-(methylamino)propyl]amino]-5-quinolinyl]-β-methyl-benzenepropanamide, ditrifluoroacetate] |
